Laboratory results as given in patent US20090286803A1, “COMBINATION COMPRISING A) A PYRIMIDYLAMINOBENZAMIDE COMPOUND, AND B) A THR315LLE KINASE INHIBITOR” (priority 2006, published 2009).

What was measured:
[1] = tested on: mutant forms of Bcr-Abl; conditions: 33 mutant forms evaluated
[2] = tested on: Thr315lle Bcr-Abl; conditions: only mutant of the 33 not inhibited

Cc1cn(-c2cc(NC(=O)c3ccc(C)c(Nc4nccc(-c5cccnc5)n4)c3)cc(C(F)(F)F)c2)cn1 [AMN107, 4-Methyl-3-[[4-(3-pyridinyl)-2-pyrimidinyl]amino]-N-[5-(4-methyl-1H-imidazol-1-yl)-3-(trifluoromethyl)phenyl] benzamide]
mutant forms of Bcr-Abl inhibited, out of those currently evaluated [1]: 32 of 33 | sensitivity of the Thr315lle mutant [2]: resistant
